Test systems include PC-3 prostate; OVCAR-4 ovarian; HCC-2998 colon; HCT-15 colon; A549 NSCLC; HCT-116 colon; SF-295 CNS; SK-MEL-2 melanoma; MOLT-4 leukemia.
What all share (assay): inhibition of tumour cell growth, NCI panel, 48 h

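Exposure lasted 48 hours, with cells grown in 96-well plates and compounds tested at five concentrations. GI50 marks 50% less growth. TGI: concentration producing complete growth inhibition.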

For the molecule `CC(C)c1ccc(/C=C2\CSCC3=C2NC(=S)NC3c2ccc(C(C)C)cc2)cc1` (stereo unspecified), the TGI with PC-3 prostate, in the experiment on OVCAR-4 ovarian, in the experiment with HCC-2998 colon, with HCT-15 colon, with A549 NSCLC and in the experiment with HCT-116 colon was over 100 µM each time. In addition, the TGI with SF-295 CNS, in the experiment on SK-MEL-2 melanoma and in the experiment with MOLT-4 leukemia was over 100 µM throughout.
Consider `O=S1(=O)c2ccccc2C(=NO)c2ccccc21`, for which the TGI in the experiment with PC-3 prostate, in the experiment with OVCAR-4 ovarian, with HCC-2998 colon, in the experiment with HCT-15 colon, with A549 NSCLC and in the experiment with HCT-116 colon was over 100 µM each time. Besides, the TGI with SF-295 CNS, with SK-MEL-2 melanoma and in the experiment with MOLT-4 leukemia was over 100 µM in each case.
As for `COc1cccc(N(CN2CC=CC2=O)C(C)=O)c1`, the TGI in the experiment with PC-3 prostate, with OVCAR-4 ovarian, in the experiment on HCC-2998 colon, in the experiment on HCT-15 colon, in the experiment with A549 NSCLC and in the experiment on HCT-116 colon was over 100 µM throughout. Also, the TGI with SF-295 CNS, with SK-MEL-2 melanoma and with MOLT-4 leukemia was over 100 µM throughout.
Take `O=c1[nH]c(=O)n(Cc2ccccc2CO)cc1Sc1ccccc1`: the TGI in the experiment on PC-3 prostate is over 100 µM; in the experiment on OVCAR-4 ovarian, over 100 µM; in the experiment with HCC-2998 colon it was 30.8 µM; with HCT-15 colon, 53.5 µM; in the experiment on A549 NSCLC, 43.2 µM; in the experiment on HCT-116 colon it was 64.7 µM. For the same molecule, the TGI is over 100 µM in the experiment with SF-295 CNS, 45.8 µM with SK-MEL-2 melanoma and over 100 µM in the experiment on MOLT-4 leukemia.
`Nc1ccccc1N/C=C\C(=O)C(Cl)(Cl)Cl`: the TGI with PC-3 prostate is over 100 µM; in the experiment with OVCAR-4 ovarian it was 44.4 µM; with HCC-2998 colon it was 31.7 µM; in the experiment with HCT-15 colon, 46.1 µM; in the experiment on A549 NSCLC, over 100 µM; in the experiment on HCT-116 colon, 29.7 µM. For the same molecule, the TGI was 75.1 µM with SF-295 CNS, 53.7 µM in the experiment with SK-MEL-2 melanoma and over 100 µM in the experiment on MOLT-4 leukemia.
On to `NC(=S)Nc1[nH]c(=S)nc2c1SC1=N/C(=C\c3ccco3)C(=O)N12`, for which the TGI in the experiment with PC-3 prostate is over 100 µM; with OVCAR-4 ovarian, over 100 µM; in the experiment with HCC-2998 colon it was over 50.4 µM; in the experiment on HCT-15 colon, over 100 µM; with A549 NSCLC it was over 100 µM; in the experiment with HCT-116 colon, over 100 µM. In addition, the TGI in the experiment on SF-295 CNS, in the experiment with SK-MEL-2 melanoma and in the experiment with MOLT-4 leukemia was over 100 µM in each case.
Turning to `COc1cc(CC2c3cc(OC)c(OC)cc3CCN2C)c(Oc2cc3c(cc2OC)-c2c(O)c(OC)cc4c2C(C3)N(C)CC4)cc1OC` (stereo unspecified), the TGI with PC-3 prostate is 94.6 µM; in the experiment on OVCAR-4 ovarian, 90.7 µM; with HCC-2998 colon it was 31 µM; in the experiment with HCT-15 colon, 33.1 µM; in the experiment on A549 NSCLC, over 100 µM; in the experiment on HCT-116 colon, over 100 µM. For the same molecule, the TGI in the experiment on SF-295 CNS was 35.4 µM; in the experiment on SK-MEL-2 melanoma, 58.5 µM; in the experiment with MOLT-4 leukemia it was over 100 µM.
On to `O=c1c2cc(I)ccc2nc(Sc2ncccc2[N+](=O)[O-])n1Cc1ccccc1`, for which the TGI in the experiment on PC-3 prostate, in the experiment with OVCAR-4 ovarian, with HCC-2998 colon, in the experiment on HCT-15 colon, in the experiment with A549 NSCLC and in the experiment on HCT-116 colon was over 100 µM each time. The TGI in the experiment on SF-295 CNS is over 100 µM; with SK-MEL-2 melanoma, 30.8 µM; with MOLT-4 leukemia, over 100 µM.
`Cc1sc(/N=C/c2c[nH]c3ccccc23)c(C#N)c1C`: the TGI is over 100 µM in the experiment on PC-3 prostate; over 100 µM with OVCAR-4 ovarian; 70.5 µM in the experiment with HCC-2998 colon; over 100 µM with HCT-15 colon; over 100 µM in the experiment with A549 NSCLC; over 100 µM in the experiment on HCT-116 colon. Besides, the TGI in the experiment with SF-295 CNS, in the experiment with SK-MEL-2 melanoma and in the experiment with MOLT-4 leukemia was over 100 µM in each case.
In the case of `CC[C@H](C)[C@H]1NC(=O)[C@@H](NC(=O)[C@@H](CC(C)C)N(C)CC2CCCN2C(=O)C(C)=O)[C@@H](C)OC(=O)[C@H](Cc2ccc(OC)cc2)N(C)C(=O)C2CCCN2C(=O)[C@H](CC(C)C)NC(=O)[C@@H](C)C(=O)[C@H](C(C)C)OC(=O)C[C@@H]1O` (stereo partly specified), the TGI in the experiment with PC-3 prostate was 0.00983 µM; with OVCAR-4 ovarian, 0.00687 µM; with HCC-2998 colon it was 0.00958 µM; in the experiment on HCT-15 colon, 0.73 µM; in the experiment on A549 NSCLC it was 0.0335 µM; in the experiment on HCT-116 colon it was 0.0102 µM. Also, the TGI in the experiment on SF-295 CNS turned out to be 0.042 µM; in the experiment on SK-MEL-2 melanoma, 0.00703 µM; in the experiment with MOLT-4 leukemia, 0.00608 µM.
`COc1ccc(N=N/C(=N/NC(=O)c2ccccc2)c2ccc(N(CCC#N)CCC#N)cc2C)cc1`: the TGI in the experiment with PC-3 prostate, in the experiment on OVCAR-4 ovarian, in the experiment on HCC-2998 colon, with HCT-15 colon, with A549 NSCLC and in the experiment on HCT-116 colon was over 100 µM throughout. Further, the TGI with SF-295 CNS, in the experiment with SK-MEL-2 melanoma and in the experiment on MOLT-4 leukemia was over 100 µM in each case.
For `[N-]=[N+]=CC(=O)OCC1SCCCS1`, the TGI with PC-3 prostate, in the experiment with OVCAR-4 ovarian, with HCC-2998 colon, in the experiment on HCT-15 colon, in the experiment with HCT-116 colon and in the experiment with SF-295 CNS was over 100 µM in each case. The TGI with SK-MEL-2 melanoma and in the experiment on MOLT-4 leukemia was over 100 µM in each case.
For `C#CC(F)(F)[C@]1(O)CC[C@H]2[C@@H]3CCC4=CC(=O)CCC4=C3[C@@H](c3ccc(C(C)=O)cc3)C[C@@]21C`, the GI50 is 10 µM in the experiment with PC-3 prostate; 18.9 µM with OVCAR-4 ovarian; 31.2 µM in the experiment on HCC-2998 colon; 14.3 µM with HCT-15 colon; 25.9 µM in the experiment with A549 NSCLC; 14.1 µM with HCT-116 colon. The figures for the GI50 in the experiment with SK-MEL-2 melanoma and in the experiment with MOLT-4 leukemia were 13.2 µM and 3.9 µM, respectively. The TGI was 97.9 µM in the experiment with PC-3 prostate; 97.1 µM in the experiment with OVCAR-4 ovarian; over 100 µM in the experiment with HCC-2998 colon; 56.8 µM in the experiment with HCT-15 colon; over 100 µM with A549 NSCLC; 42.6 µM in the experiment with HCT-116 colon. For the same molecule, the results for the TGI with SK-MEL-2 melanoma and in the experiment on MOLT-4 leukemia were 32.8 µM and 63.4 µM, respectively.
As to `CSc1c(C#N)c(=O)[nH]c2n[nH]c(C)c12`, the TGI with PC-3 prostate, in the experiment with OVCAR-4 ovarian, in the experiment on HCC-2998 colon, with HCT-15 colon, in the experiment on A549 NSCLC and with HCT-116 colon was over 100 µM throughout. Also, the TGI in the experiment with SK-MEL-2 melanoma and in the experiment with MOLT-4 leukemia was over 100 µM throughout.

Values taken from PubChem BioAssay (NCI).
